Key:
BRD4 protein = BRD4 protein (Homo sapiens (Human), UniProt O60885); assay: BRD4 protein degradation inducing action in LNCaP cells (immunofluorescence, 6 hr); type: cell-based; conditions: anti-BRD4 fluorescence intensity
Description: The degradation inducing action of the compound of the present invention on BRD4 proteins in cancer cells was evaluated in vitro using human prostate cancer LNCaP cells. LNCaP cells were suspended in 10% FBS/RPMI1640, seeded in a 96 well Cell carrier plate (Perkin Elmer) and cultured at 5% CO2, 37° C. overnight. A test compound dissolved in DMSO was diluted with 10% FBS/RPMI1640 and added and the cells were further cultured for 6 hr. After culturing, the cells were immobilized with 4% para-formaldehyde/PBS and further subjected to a permeation treatment with 0.25% Triton X-100/PBS. Thereafter, the cells were blocked with 10% BSA/PBS, Anti-BRD4 (Sigma-Aldrich) solution was added and the cells were incubated at 4° C. overnight. Furthermore, Goat anti-Rabbit IgG(H+L) Cross-Adsorbed Secondary Antibody, Alexa Fluor 546 (Thermo Fisher Scientific) solution, 0.5 μg/mL Hoechst 33342 (Sigma-Aldrich), and 14 μM Acti-Stain 555 Fluorescent Phalloidin (Cytoskeleton) were added. After incubation for 1 hr, BRD4 protein amount was measured by Operetta (Perkin Elmer) as fluorescence intensity (excitation: 560 nm, emission: 572 nm). The BRD4 protein degradation inducing activity of the compound of the present invention in LNCaP cells is shown in DC50 value in Table 3. The DC50 value is a concentration of the compound showing 50% fluorescence intensity when the fluorescence intensity thereof under compound untreated condition is 100%. It was calculated from the straight line connecting the fluorescence intensity at two points enclosing the 50% fluorescence intensity and the compound concentration.

[1] = system: human prostate cancer LNCaP cells; assay: Cytotoxic action on LNCaP cells (WST-8, 96 hr); type: cell-based; conditions: 96 hr culture
Description: The cytotoxic action of the compound of the present invention against human cancer cells was evaluated in vitro. In this experiment, (+)-JQ1 (Nature volume 468, pages 1067-1073 (23 Dec. 2010)) known to have an inhibitory activity on the binding of BRD4 protein and a ligand therefor was used as a positive control drug. Respective cells were suspended in 10% FBS/RPMI1640, seeded in a 96 well plate and cultured at 5% CO2, 37° C. overnight. A test compound dissolved in DMSO was diluted with 10% FBS/RPMI1640 and added and the cells were further cultured for 96 hr. After culturing, the viable cell number was measured using a cell number measurement WST-8 kit (Kishida Chemical Co., Ltd.). As a control, the measurement was performed under conditions free of the test compound. The cytotoxic activity of the compound of the present invention against human prostate cancer LNCaP cells is shown in IC50 value in Table 1. The IC50 value is a concentration of the compound showing 50% cell survival rate when the cell survival rate thereof under compound untreated condition is 100%. It was calculated from the straight line connecting the cell survival rate at two points enclosing the 50% cell survival rate and the compound concentration. In addition, the cytotoxic activity against respective cancer cells of human acute myeloid leukemia MV-4-11 cell, human chronic myeloid leukemia K562 cell, human multiple myeloma MM.1S cell, human diffuse large B-cell lymphoma SU-DHL-6 cell, human T-cell leukemia Jurkat cells, human Burkitt lymphoma Raji cell, human castration-resistant prostate cancer PC-3 cell, human AR-V7 positive castration-resistant prostate cancer 22Rv1 cell, human ovarian cancer A2780 cell, human cisplatin-resistant ovarian cancer SK-OV-03 cell, human bladder cancer 5637 cell, human breast cancer ZR-75-1 cell, human triple negative breast cancer MDA-MB-231 cell, human uterus cervix cancer HeLa cell, human uterine sarcoma MES-SA cell, human stomach cancer SNU-16 cell, human non-small cell lung cancer NCI-H2126 cell, human EGFRT790M mutation-positive non-small cell lung cancer NCI-H1975 cell, human small cell lung cancer NCI-H82 cell, human large cell lung cancer NCI-H460 cell, human colon cancer HCT116 cell, human glioma U-87 MG cell, human pancreatic cancer BxPC-3 cell, human liver cancer HLF cell, human bile duct cancer HuCCT1 cell, human renal cell cancer 786-O cell, and human fibrosarcoma HT1080 cell is shown in IC50 value in Table 2.

Compound	DC50 (BRD4 protein) [nM]	IC50 [1] [nM]
Cc1sc2c(c1C)C(c1ccc(-c3cc(Cl)c(C(=O)NCc4ccc(S(=O)(=O)Nc5ccc(C)c6c(C#N)c[nH]c56)cc4)cc3F)cc1)=N[C@@H](C)c1nnc(C)n1-2 [Example 71, 5-chloro-N-({4-[(3-cyano-4-methyl-1H-indol-7-yl)sulfamoyl]phenyl}methyl)-2-fluoro-4′-[(6S)-2,3,6,9-tetramethyl-6H-thieno[3,2-f][1,2,4]triazolo[4,3-a][1,4]diazepin-4-yl][1,1′-biphenyl]-4-carboxamide]	0.32	0.61
COC(=O)C[C@@H]1N=C(c2ccc(-c3ccc(C(=O)N[C@H](C)c4ccc(S(=O)(=O)Nc5ccc(C)c6c(C#N)c[nH]c56)cc4)cc3F)cc2)c2c(sc(C)c2C)-n2c(C)nnc21 [Example 85, methyl [(6S)-4-(4′-{[(1R)-1-{4-[(3-cyano-4-methyl-1H-indol-7-yl)sulfamoyl]phenyl}ethyl]carbamoyl}-2′-fluoro[1,1′-biphenyl]-4-yl)-2,3,9-trimethyl-6H-thieno[3,2-f][1,2,4]triazolo[4,3-a][1,4]diazepin-6-yl]acetate]	0.074	0.26
COC(=O)C[C@@H]1N=C(c2ccc(-c3ccc(C(=O)NCc4ccc(S(=O)(=O)Nc5ccc(OC)c6c(C#N)c[nH]c56)cc4)cc3)cc2)c2c(sc(C)c2C)-n2c(C)nnc21 [Example 15, methyl [(6S)-4-{4′-[({4-[(3-cyano-4-methoxy-1H-indol-7-yl)sulfamoyl]phenyl}methyl)carbamoyl][1,1′-biphenyl]-4-yl}-2,3,9-trimethyl-6H-thieno[3,2-f][1,2,4]triazolo[4,3-a][1,4]diazepin-6-yl]acetate]	0.22	0.28
COC(=O)C[C@@H]1N=C(c2ccc(-c3ccc(C(=O)NCc4ccc(S(=O)(=O)Nc5ccc(C)c6c(C#N)c[nH]c56)cc4)c(OC)c3)cc2)c2c(sc(C)c2C)-n2c(C)nnc21 [Example 52, methyl [(6S)-4-{4′-[({4-[(3-cyano-4-methyl-1H-indol-7-yl)sulfamoyl]phenyl}methyl)carbamoyl]-3′-methoxy[1,1′-biphenyl]-4-yl}-2,3,9-trimethyl-6H-thieno[3,2-f][1,2,4]triazolo[4,3-a][1,4]diazepin-6-yl]acetate]	0.3	0.55
COC(=O)C[C@@H]1N=C(c2ccc(-c3ccc(C(=O)NCc4ccc(S(=O)(=O)Nc5ccc(C)c6c(C#N)c[nH]c56)cc4)c(Cl)c3)cc2)c2c(sc(C)c2C)-n2c(C)nnc21 [Example 3, methyl [(6S)-4-{3′-chloro-4′-[({4-[(3-cyano-4-methyl-1H-indol-7-yl)sulfamoyl]phenyl}methyl)carbamoyl][1,1′-biphenyl]-4-yl}-2,3,9-trimethyl-6H-thieno[3,2-f][1,2,4]triazolo[4,3-a][1,4]diazepin-6-yl]acetate]	0.42	0.092
COC(=O)C[C@@H]1N=C(c2ccc(-c3ccc(C(=O)N[C@H](C)c4ccc(S(=O)(=O)Nc5ccc(C)c6c(C#N)c[nH]c56)cc4)cc3)cc2)c2c(sc(C)c2C)-n2c(C)nnc21 [Example 26, methyl [(6S)-4-(4′-{[(1R)-1-{4-[(3-cyano-4-methyl-1H-indol-7-yl)sulfamoyl]phenyl}ethyl]carbamoyl}[1,1′-biphenyl]-4-yl)-2,3,9-trimethyl-6H-thieno[3,2-f][1,2,4]triazolo[4,3-a][1,4]diazepin-6-yl]acetate]	0.14	0.1

More lines, main results first:

DC50 (BRD4 protein) [nM]	Compound	IC50 [1] [nM]
0.37	COC(=O)C[C@@H]1N=C(c2ccc(-c3ccc(C(=O)N[C@H](C)c4ccc(S(=O)(=O)Nc5ccc(C)c6c(C#N)c[nH]c56)cc4)cc3C)cc2)c2c(sc(C)c2C)-n2c(C)nnc21 [Example 88, methyl [(6S)-4-(4′-{[(1R)-1-{4-[(3-cyano-4-methyl-1H-indol-7-yl)sulfamoyl]phenyl}ethyl]carbamoyl}-2′-methyl[1,1′-biphenyl]-4-yl)-2,3,9-trimethyl-6H-thieno[3,2-f][1,2,4]triazolo[4,3-a][1,4]diazepin-6-yl]acetate]	0.17
0.26	CCc1ccc(NS(=O)(=O)c2ccc(CNC(=O)c3cc(F)c(-c4ccc(C5=N[C@@H](CC(=O)OC)c6nnc(C)n6-c6sc(C)c(C)c65)cc4)cc3C)cc2)c2[nH]cc(C#N)c12 [Example Compound 120, methyl [(6S)-4-{4′-[({4-[(3-cyano-4-ethyl-1H-indol-7-yl)sulfamoyl]phenyl}methyl)carbamoyl]-2′-fluoro-5′-methyl[1,1′-biphenyl]-4-yl}-2,3,9-trimethyl-6H-thieno[3,2-f][1,2,4]triazolo[4,3-a][1,4]diazepin-6-yl]acetate]	0.41
0.42	CCc1ccc(NS(=O)(=O)c2ccc(CNC(=O)c3ccc(-c4ccc(C5=N[C@@H](CC(=O)OC)c6nnc(C)n6-c6sc(C)c(C)c65)cc4)c(Cl)c3)cc2)c2[nH]cc(C#N)c12 [Example Compound 116, methyl [(6S)-4-{2′-chloro-4′-[({4-[(3-cyano-4-ethyl-1H-indol-7-yl)sulfamoyl]phenyl}methyl)carbamoyl][1,1′-biphenyl]-4-yl}-2,3,9-trimethyl-6H-thieno[3,2-f][1,2,4]triazolo[4,3-a][1,4]diazepin-6-yl]acetate]	0.65
0.063	CCc1ccc(NS(=O)(=O)c2ccc(CCNC(=O)c3ccc(-c4ccc(C5=N[C@@H](CC(=O)OC)c6nnc(C)n6-c6sc(C)c(C)c65)cc4)cn3)cc2)c2[nH]cc(C#N)c12 [Example 110, methyl [(6S)-4-(4-{6-[(2-{4-[(3-cyano-4-ethyl-1H-indol-7-yl)sulfamoyl]phenyl}ethyl)carbamoyl]pyridin-3-yl}phenyl)-2,3,9-trimethyl-6H-thieno[3,2-f][1,2,4]triazolo[4,3-a][1,4]diazepin-6-yl]acetate]	0.28
0.34	COC(=O)C[C@@H]1N=C(c2ccc(-c3ccc(C(=O)NCc4ccc(S(=O)(=O)Nc5ccc(C)c6c(C#N)c[nH]c56)cc4)cc3)cc2)c2cc(OC)ccc2-n2c(C)nnc21 [Example Compound 133, methyl [(4S)-6-{4′-[({4-[(3-cyano-4-methyl-1H-indol-7-yl)sulfamoyl]phenyl}methyl)carbamoyl][1,1′-biphenyl]-4-yl}-8-methoxy-1-methyl-4H-[1,2,4]triazolo[4,3-a][1,4]benzodiazepin-4-yl]acetate]	0.49
0.085	COC(=O)C[C@@H]1N=C(c2ccc(-c3ccc(C(=O)NCCc4ccc(S(=O)(=O)Nc5ccc(C)c6c(C#N)c[nH]c56)cc4)c(F)c3F)cc2)c2c(sc(C)c2C)-n2c(C)nnc21 [Example 100, methyl [(6S)-4-{4′-[(2-{4-[(3-cyano-4-methyl-1H-indol-7-yl)sulfamoyl]phenyl}ethyl)carbamoyl]-2′,3′-difluoro[1,1′-biphenyl]-4-yl}-2,3,9-trimethyl-6H-thieno[3,2-f][1,2,4]triazolo[4,3-a][1,4]diazepin-6-yl]acetate]	0.16
0.13	COC(=O)C[C@@H]1N=C(c2ccc(-c3ccc(C(=O)NCc4ccc(S(=O)(=O)Nc5ccc(C)c6c(C#N)c[nH]c56)cc4C)cc3)cc2)c2c(sc(C)c2C)-n2c(C)nnc21 [Example 94, methyl [(6S)-4-{4′-[({4-[(3-cyano-4-methyl-1H-indol-7-yl)sulfamoyl]-2-methylphenyl}methyl)carbamoyl][1,1′-biphenyl]-4-yl}-2,3,9-trimethyl-6H-thieno[3,2-f][1,2,4]triazolo[4,3-a][1,4]diazepin-6-yl]acetate]	0.42
